# Source: patent US20200069664A1, “METHODS FOR TREATING INFECTION” (Salix Pharmaceuticals, Ltd, priority 2010, published 2020)
# Entries after “also recorded” stand apart in the source; their conditions may differ. Like-named read-outs stand apart in the source and are kept apart here.
# Experiments:
# [1] = tested on: B. anthracis Sterne strain 7702; type: cell-based; details: pretreated A549 cells, vs other treatment groups
# [2] = tested on: enterotoxigenic E coli strains; test: MIC against rifaximin by agar dilution, ETEC isolates; type: cell-based
# Excerpt: (§1) Five enterotoxigenic E coli strains, 2 enteroaggregative E coli strains, and 1 S sonnei isolate were included in the study. The isolates had been identified previously from patients with TD acquired in Guadalajara, Mexico, during the summer of 2004 (5).
# [3] = tested on: S sonnei isolate; test: MIC against rifaximin by agar dilution, S sonnei isolate; type: cell-based
# Excerpt: as §1
# [4] = tested on: ETEC strains; test: Isolate viability after rifaximin exposure, ETEC; type: cell-based, E coli
# [5] = tested on: ETEC isolates; type: cell-based, E coli
# [6] = tested on: S sonnei isolate; test: MMP-9 detection by gelatin zymography in S sonnei isolate after rifaximin exposure; type: cell-based
# Procedure: Expression of matrix metalloproteinase-9 (MMP-9) was analyzed using gelatin zymography in all viable EAEC and S. sonnei isolates growing on MacConkey agar. Isolates were suspended in 1 mL of 0.1 M phosphate buffered saline (pH 7.2) and centrifuged at 1000 g for 10 minutes at 4° C. The supernatant was subjected to gelatin zymography to detect MMP-9 activity using a modified Heussen and Dowdle protocol (9). In summary, the supernatant was diluted 1:2 in a sample buffer (125 mM Tris-HCl, pH 6.8, 20% glycerol, 4% sodium dodecyl sulfate, 0.02% bromphenol blue), and 20 μL was loaded on to a 10% SDS-PAGE gel containing 1 mg/mL gelatin. Prestained standard proteins were used as molecular weight markers. After electrophoresis, gels were rinsed with incubation buffer (2.5% triton X-100, 50 mM Tris-HCl, pH 7.4, 0.02% Brij 35, 10 mM CaCl2, 2 μM ZnCl2) for 1 hour at room temperature to remove SDS. Gels were then incubated overnight at 37° C. and subsequently stained with Coomassie brilliant blue R-250 (Thermo Fisher Scientific, Inc, Rockford, Ill.). […] Matrix metalloproteinase-9 was identified among all gelatinolytic proteins by size.
# [7] = tested on: EAEC strains; test: HCT-8 cell culture assay for IL-8 release after infection with rifaximin-exposed EAEC; type: cell-based, E coli
# Procedure: The human intestinal adenocarcinoma cell line, HCT-8, was used to study inflammatory modulators as previously published (Huang, 2004 #15). Monolayers of HCT-8 cells (ATCC CCL-244; American Type Culture Collection, Rockville, Md.) were grown in 24-well culture plates (Corning Costar, Corning, N.Y.) in an RPMI 1640 medium (Sigma-Aldrich Co, St Louis, Mo.) supplemented with 100 U/mL of penicillin, 100 μg/mL of streptomycin, and 0.25 μg/mL of amphotericin B. They were maintained in a medium supplemented with 10% fetal bovine serum (HyClone, Logan, Utah) and grown until approximately 4×10^5 cells/well confluence.
# HCT-8 cells were infected with EAEC strains recovered from MacConkey agar in triplicate at a 100:1 ratio in an antibiotic- and serum-free RPMI 1640 medium. Cells were incubated for 3 hours in a humidified chamber at 37° C. in an atmosphere containing 5% CO2, after which supernatants were collected. The supernatant concentration of IL-8 in each well was determined by using a commercially available enzyme-linked immunosorbent assay kit for human IL-8 (R&D Systems, Minneapolis, Minn.). All samples were tested twice, and the average value was reported.
# [8] = tested on: EAEC; test: MIC50 previously established for EAEC; type: cell-based, E. coli; details: previously established in our laboratory
# [9] = tested on: C difficile isolates; details: cited from earlier work
# [10] = tested on: C difficile isolates; details: 201 C difficile isolates, Canada, cited from earlier work
# [11] = tested on: HEp-2 cells; test: Cytokine array of supernatants of treated HEp-2 cells; details: 64 μg/ml, 24 h; Panomics array of 36 cytokines
# [12] = tested on: C difficile isolates; test: In vitro susceptibility of C difficile isolates (agar dilution for rifaximin, Etest for rifampin)
# [13] = rifaximin 8 mg/L, exposure 4 hrs
# [14] = rifaximin 8 mg/L, exposure 8 hrs
# [15] = rifaximin 8 mg/L, exposure 18 hrs
# [16] = rifaximin 8 mg/L, exposure 24 hrs
# [17] = rifaximin 32 mg/L, exposure 4 hrs
# [18] = rifaximin 32 mg/L, exposure 8 hrs
# [19] = rifaximin 32 mg/L, exposure 18 hrs
# [20] = rifaximin 64 mg/L, exposure 4 hrs
# [21] = rifaximin 64 mg/L, exposure 8 hrs
# [22] = 110 C difficile isolates, 1983 to 2004
# [23] = resistance = MIC≥32 μg/mL, for rifaximin b194 says 'rifaximin alone'
substance,measurement,setting,value
"(2S,16Z,18E,20S,21S ,22R, 23R,24R,255,265,275,28E)-5,6,21,23,25 Pentahydroxy-27-methoxy-2,4,11,16,20,22,24,26-octamethyl-2,7-(epoxypentadeca-(1,11,13) trienimino) benzofuro (4,5-e) pyrido(1,2,-a) benzimidazole-1,15(2H)-dione,25-acetate [Rifaximin]",Internalization of B. anthracis,[1]; gentamicin protection,significant reductions
same,Adherence of B. anthracis,[1],significant reductions
same,MIC,[2]; 2 ETEC isolates,128 µg/mL
same,MIC,[2]; 3 ETEC isolates,64 µg/mL
same,MIC,[3],16 µg/mL
same,ETEC viability,[4]; rifaximin 8 mg/L for 24 hours,viable
same,ETEC viability,[4]; rifaximin 64 mg/L for 18 hours,No ETEC isolates were viable; also recorded: not viable
same,ETEC viability,"[4]; rifaximin 8, 32, and 64 mg/L for 4 and 8 hours",viable
same,ETEC viability,[4]; rifaximin 8 and 32 mg/L for 18 hours,viable
same,ETEC viability,[4]; rifaximin 32 and 64 mg/L for 24 hours,No ETEC isolates were viable; also recorded: not viable
same,"Expression of virulence factors (ST, LT, CS2/CS3, CS6) by ETEC isolates","[5]; 4- and 8-hour exposure to rifaximin 8, 32, and 64 mg/L",expressed all examined virulence factors
same,"Expression of virulence factors (ST, LT, CS2/CS3, CS6) by ETEC isolates","[5]; 18 hours, rifaximin 8 mg/L",all virulence factors were expressed
same,"Expression of virulence factors (ST, LT, CS2/CS3, CS6) by ETEC isolates","[5]; 18 hours, rifaximin 32 mg/L",no factors were seen
same,"Expression of virulence factors (ST, LT, CS2/CS3, CS6) by ETEC isolates","[5]; 24 hours, rifaximin 8 mg/L",did not express any virulence factors
same,Expression of CS2/CS3 in ETEC isolates,[5]; [13],+
same,Expression of CS6 in ETEC isolates,[5]; [13],+
same,Expression of LT in ETEC isolates,[5]; [13],+
same,Expression of ST in ETEC isolates,[5]; [13],+
same,Expression of ST/LT in ETEC isolates,[5]; [13],+
same,Expression of CS2/CS3 in ETEC isolates,[5]; [14],+
same,Expression of CS6 in ETEC isolates,[5]; [14],+
same,Expression of LT in ETEC isolates,[5]; [14],+
same,Expression of ST in ETEC isolates,[5]; [14],+
same,Expression of ST/LT in ETEC isolates,[5]; [14],+
same,Expression of CS2/CS3 in ETEC isolates,[5]; [15],+
same,Expression of CS6 in ETEC isolates,[5]; [15],+
same,Expression of LT in ETEC isolates,[5]; [15],+
same,Expression of ST in ETEC isolates,[5]; [15],+
same,Expression of ST/LT in ETEC isolates,[5]; [15],+
same,Expression of CS2/CS3 in ETEC isolates,[5]; [16],−
same,Expression of CS6 in ETEC isolates,[5]; [16],−
same,Expression of LT in ETEC isolates,[5]; [16],−
same,Expression of ST in ETEC isolates,[5]; [16],−
same,Expression of ST/LT in ETEC isolates,[5]; [16],−
same,Expression of CS2/CS3 in ETEC isolates,[5]; [17],+
same,Expression of CS6 in ETEC isolates,[5]; [17],+
same,Expression of LT in ETEC isolates,[5]; [17],+
same,Expression of ST in ETEC isolates,[5]; [17],+
same,Expression of ST/LT in ETEC isolates,[5]; [17],+
same,Expression of CS2/CS3 in ETEC isolates,[5]; [18],+
same,Expression of CS6 in ETEC isolates,[5]; [18],+
same,Expression of LT in ETEC isolates,[5]; [18],+
same,Expression of ST in ETEC isolates,[5]; [18],+
same,Expression of ST/LT in ETEC isolates,[5]; [18],+
same,Expression of CS2/CS3 in ETEC isolates,[5]; [19],−
same,Expression of CS6 in ETEC isolates,[5]; [19],−
same,Expression of LT in ETEC isolates,[5]; [19],−
same,Expression of ST in ETEC isolates,[5]; [19],−
same,Expression of ST/LT in ETEC isolates,[5]; [19],−
same,Expression of CS2/CS3 in ETEC isolates,[5]; [20],+
same,Expression of CS6 in ETEC isolates,[5]; [20],+
same,Expression of LT in ETEC isolates,[5]; [20],+
same,Expression of ST in ETEC isolates,[5]; [20],+
same,Expression of ST/LT in ETEC isolates,[5]; [20],+
same,Expression of CS2/CS3 in ETEC isolates,[5]; [21],+
same,Expression of CS6 in ETEC isolates,[5]; [21],+
same,Expression of LT in ETEC isolates,[5]; [21],+
same,Expression of ST in ETEC isolates,[5]; [21],+
same,Expression of ST/LT in ETEC isolates,[5]; [21],+
same,MMP-9 in the S sonnei isolate,[6]; other time points and rifaximin concentrations,either undetectable or the isolate was not viable
same,MMP-9 in the S sonnei isolate,[6]; rifaximin 8 mg/L for 4 hours,detectable
same,IL-8 production from HCT-8 cells elicited by rifaximin-exposed EAEC,[7]; all other time points and rifaximin concentrations,"either undetected following HCT-8 infection with EAEC strains, or EAEC strains were not viable"
same,IL-8 production from HCT-8 cells elicited by rifaximin-exposed EAEC,[7]; rifaximin 64 mg/L for 4 hours,caused IL-8 production
same,IL-8 production from HCT-8 cells elicited by rifaximin-exposed EAEC,[7]; rifaximin 8 or 32 mg/L for 4 or 8 hours,elicited production of IL-8
same,IL-8 production from HCT-8 cells elicited by rifaximin-exposed EAEC,"[7]; viable isolates, rifaximin 8, 32, or 64 mg/L for 18 hours or 8 mg/L for 24 hours",did not elicit IL-8 production
same,MIC50 for EAEC,[8],64 µg/mL
same,"Isolates resistant to rifaximin, based on MIC values",[9]; 110 C difficile isolates from multiple locations,2.7%
same,MIC50,[9]; [22],0.0075 µg/mL
same,MIC90,[9]; [22],0.015 µg/mL
same,MIC50,[10]; 1992 to 2007,0.008 µg/mL
same,MIC90,[10]; 1992 to 2007,0.015 µg/mL
same,Isolates with MIC values >2 μg/mL,[10],4%
same,Cytokines detected in supernatants of treated HEp-2 cells,[11],detectable levels of RANTES and IL-4 only; also recorded: reduced the expression of various proinflammatory cytokines
same,MIC50,[12]; 359 C difficile isolates,<0.01 µg/mL
same,MIC90,[12]; 359 C difficile isolates,0.25 µg/mL
same,MIC50,"[12]; 359 C difficile isolates, listed as rifaximin",< 0.01 µg/mL
same,"Isolates resistant to both rifampin and rifaximin, percent of 359",[12]; MIC≥32 μg/mL,2%
same,"Resistant isolates, number of 359",[12]; [23],11
same,"Resistant isolates, percent of 359",[12]; [23],3%
